In paper PMC10820527, “Synthesis, Characterization, and Investigation of Anti-Inflammatory and Cytotoxic Activities of Novel Thiourea Derivatives of Naproxen” (Pharmaceutics, 2023):

Tests used:
[1] = test system: carrageenan-induced rat paw edema; assay: Carrageenan-induced rat paw edema model; format: in vivo; details: for Rat Paw Thickness: mean ± SD; for inhibition in vivo at 2.5 mg/kg / inhibition in vivo at 5 mg/kg / inhibition in vivo at 10 mg/kg: Rattus norvegicus
Description: The Carrageenan-induced rat paw edema model was used to assess the anti-inflammatory potential of novel compounds 8–14. Induction of inflammation was performed in all animals by intraplantar injection of […] 0.5% carrageenan saline into the left hind paw.
Animals (n = 200) were randomly divided into the following groups: control groups, that received either 1% DMSO or naproxen, and experimental groups, that received the novel compounds 8–14.
Control groups included DMSO and naproxen groups. Rats belonging to the DMSO group received 1% DMSO in the same volume as the compounds 8–14, 60 min before carrageenan injection. Moreover, naproxen groups included rats that were subjected to naproxen treatment in three doses: 2.5 mg/kg, 5 mg/kg, and 10 mg/kg. Naproxen was applied in the same manner as 1% DMSO.
Experimental groups included rats that were treated with compounds 8–14 and they were divided into three subgroups depending on the applied dose: 2.5 mg/kg, 5 mg/kg, and 10 mg/kg. The examined compounds were dissolved in 1% DMSO prior to treatment and applied to rats 60 min before inducing inflammation, i.e., before carrageenan injection. Doses of naproxen and investigated compounds were defined based on our previously published research.
In order to quantify the anti-inflammatory effects of the tested compounds, left paw thickness was measured at specific time points: prior to inflammation induction (moment 0) and 1, 2, 3, and 4 h (moments 1, 2, 3, and 4) following carrageenan injection. Tissue thickness was measured in the middle of the rat paw using a Digital Vernier caliper (Aerospace, China). The percentage of inhibition of paw edema after treatment with different agents was calculated according to the formula, Equation (2):% Inhibition = 100 × [1 − (Yt/Yc)](2) where Yt = average increase in paw thickness in the treated group of rats between two measurement moments, and Yc = average increase in paw thickness in the untreated group of rats between two measurement moments.

HCT 116 = assay: MTT cytotoxicity assay, HCT 116; format: cell-based, human; details: for IC50: Homo sapiens, mean ± SD
Description: Three cancer cell lines (MDA-MB-231, HCT116 and HeLa; i.e., human breast cancer cells, human colorectal cancer cells, and human cervical cancer cells, respectively), and one non-malignant fibroblast MRC-5 cell line (control) were used in this study. The American Type Cell Collection (ATCC, Manassas, VA, USA) provided all examined cell lines. The cells were grown in a complete medium made up of high-glucose DMEM media supplemented with 10% fetal bovine serum and […] L-glutamine (both from Sigma-Aldrich, USA). The cells were cultured in 25 cc flasks (Thermo Fischer Scientific, Waltham, MA, USA) at 37 °C with 100% humidity in a 5% CO2 atmosphere.
The MTT test was used to assess the cytotoxicity of compounds 1–14 [44]. The cytotoxicity of naproxen was also investigated due to its clinical use and structural similarity. Throughout the exponential development period, cells were taken from culture flasks and counted, and 5 × 10^3 cells/well were planted into 96-well culture plates. Following that, the cell lines were treated with varying doses of the investigated chemicals (1–14), naproxen ([…]), and fresh complete media as a control. All evaluated cells were incubated for 24, 48, and 72 h at 37 °C in an environment containing 5% CO2 and 100% humidity. Following incubation, each well’s culture media was taken out, each well received an addition of MTT solution at a final concentration of 0.5 mg/mL, and the cells were left to incubate for an additional four hours. The MTT solution was then withdrawn carefully, and the formazan crystals were dissolved in DMSO. After shaking the plates for 10 min, absorbance at 595 nm was measured using a multiplate reader (Zenyth 3100, Anthos Labtec Instruments, Salzburg, Austria). All concentrations of the tested compounds were performed in three separate wells of the microtiter plates and in three separate experiments. The results were reported as a ratio to the control value, untreated cells. IC50 values were also determined using Microsoft Office Excel 2021. The percentage of viable cells was estimated by dividing the readout absorbance value in the wells containing treated cells by the average absorbance value measured in the wells containing untreated cells, and multiplying the result by 100 [44]. % of the viable cells = ((absorbance of treated cell-absorbance of blank)/(absorbance of untreated cell-absorbance of blank)) × 100(3)

[2] = 2.5 mg/kg, 1 h after carrageenan
[3] = 2.5 mg/kg, 2 h after carrageenan
[4] = 2.5 mg/kg, 3 h after carrageenan
[5] = 2.5 mg/kg, 4 h after carrageenan
[6] = 5.0 mg/kg, 1 h after carrageenan
[7] = 5.0 mg/kg, 2 h after carrageenan
[8] = 5.0 mg/kg, 3 h after carrageenan
[9] = 5.0 mg/kg, 4 h after carrageenan
[10] = 10.0 mg/kg, 1 h after carrageenan
[11] = 10.0 mg/kg, 2 h after carrageenan
[12] = 10.0 mg/kg, 3 h after carrageenan
[13] = 10.0 mg/kg, 4 h after carrageenan

| Compound | Rat Paw Thickness [1, 2] | Rat Paw Thickness [1, 3] | Rat Paw Thickness [1, 4] | Rat Paw Thickness [1, 5] | Rat Paw Thickness [1, 6] | Rat Paw Thickness [1, 7] | Rat Paw Thickness [1, 8] | Rat Paw Thickness [1, 9] | Rat Paw Thickness [1, 10] | Rat Paw Thickness [1, 11] | Rat Paw Thickness [1, 12] | Rat Paw Thickness [1, 13] | inhibition in vivo at 2.5 mg/kg ([1]; 2.5 mg/kg, 1 h) | inhibition in vivo at 2.5 mg/kg ([1]; 2.5 mg/kg, 2 h) | inhibition in vivo at 2.5 mg/kg ([1]; 2.5 mg/kg, 3 h) | inhibition in vivo at 2.5 mg/kg ([1]; 2.5 mg/kg, 4 h) | inhibition in vivo at 5 mg/kg ([1]; 5.0 mg/kg, 1 h) | inhibition in vivo at 5 mg/kg ([1]; 5.0 mg/kg, 2 h) | inhibition in vivo at 5 mg/kg ([1]; 5.0 mg/kg, 3 h) | inhibition in vivo at 5 mg/kg ([1]; 5.0 mg/kg, 4 h) | other results |
| --- | --- | --- | --- | --- | --- | --- | --- | --- | --- | --- | --- | --- | --- | --- | --- | --- | --- | --- | --- | --- | --- |
| COC(=O)[C@H](Cc1ccccc1)NC(=S)NC(=O)[C@@H](C)c1ccc2cc(OC)ccc2c1 [Compound 13, Methyl (((S)-2-(6-methoxynaphthalen-2-yl)propanoyl)carbamothioyl)phenylalaninate] | 7.0 ± 0.10 mm | 6.60 ± 0.10 mm | 6.13 ± 0.12 mm | 5.83 ± 0.06 mm | 6.90 ± 0.10 mm | 6.43 ± 0.32 mm | 5.90 ± 0.36 mm | 5.47 ± 0.23 mm | 6.77 ± 0.42 mm | 6.40 ± 0.36 mm | 6.10 ± 0.36 mm | 5.80 ± 0.30 mm | 6.12% | 13.6% | 22.5% | 24.4% | -0.68% | 9.09% | 20.7% | 31.1% | inhibition in vivo at 10 mg/kg ([1]; 10.0 mg/kg, 1 h): 19.7%; inhibition in vivo at 10 mg/kg ([1]; 10.0 mg/kg, 2 h): 27.3%; inhibition in vivo at 10 mg/kg ([1]; 10.0 mg/kg, 3 h): 29.7%; inhibition in vivo at 10 mg/kg ([1]; 10.0 mg/kg, 4 h): 33.3%; IC50 (HCT 116; HCT-116, 24 h): > 200 µM; IC50 (HCT 116; HCT-116, 48 h): > 200 µM; IC50 (HCT 116; HCT-116, 72 h): 99.6 ± 4.9 µM |
| COC(=O)[C@H](Cc1c[nH]c2ccccc12)NC(=S)NC(=O)[C@@H](C)c1ccc2cc(OC)ccc2c1 [Compound 14, Methyl (((S)-2-(6-methoxynaphthalen-2-yl)propanoyl)carbamothioyl)tryptophanate] | 6.53 ± 0.42 mm | 6.23 ± 0.25 mm | 5.90 ± 0.26 mm | 5.33 ± 0.49 mm | 6.77 ± 0.38 mm | 6.53 ± 0.42 mm | 6.17 ± 0.25 mm | 5.80 ± 0.10 mm | 7.03 ± 0.21 mm | 6.47 ± 0.06 mm | 6.03 ± 0.25 mm | 5.67 ± 0.21 mm | 12.9% | 16.7% | 18.9% | 37.8% | 25.2% | 27.3% | 33.3% | 42.2% | inhibition in vivo at 10 mg/kg ([1]; 10.0 mg/kg, 1 h): 11.6%; inhibition in vivo at 10 mg/kg ([1]; 10.0 mg/kg, 2 h): 27.3%; inhibition in vivo at 10 mg/kg ([1]; 10.0 mg/kg, 3 h): 36.9%; inhibition in vivo at 10 mg/kg ([1]; 10.0 mg/kg, 4 h): 46.7%; Cytotoxic effect against the HCT 116 cell line (in words) (HCT 116): moderate cytotoxic effects; IC50 (HCT 116; HCT-116, 24 h): 150 ± 7.6 µM; IC50 (HCT 116; HCT-116, 48 h): 108 ± 12.7 µM; IC50 (HCT 116; HCT-116, 72 h): 47.1 ± 5.4 µM |
